Read-outs that look alike come from different tables or passages of the source.
Tests used:
mTOR (human) = mTOR (human) (Homo sapiens (Human), UniProt P42345); test: mTOR (human) kinase assay, [γ-33P-ATP] filter assay; format: biochemical
How it was run: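 Radiometric filter assay: enzyme in 50 mM HEPES pH 7.5, 1 mM EGTA, 0.01% Tween 20, 3 mM MnCl2, 2 mg/ml substrate with [γ-33P-ATP], started with MgATP. Incubated 40 min at room temperature, stopped with 3% phosphoric acid; incorporation measured on P30 filtermat by scintillation counting.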

PI3K p110δ/p85α (human) = PI3K p110δ/p85α (human) (Homo sapiens (Human), UniProt O00329); test: PI3K p110δ/p85α (human), non-radioactive assay (HTRF); format: biochemical; conditions: read-out: IC50 (PI3Kdelta)
[1] = target: purified human recombinant ATM (ataxia telangiectasia mutated), full length (Homo sapiens (Human), UniProt Q13315); test: ATM kinase assay - determination of ATM inhibition (IC50 ATM), TR-FRET; format: biochemical
How it was run: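 Full-length enzyme, expressed in a mammalian cell line, pre-incubated 15 min with inhibitor in 25 mM HEPES pH 8.0, 10 mM Mg(CH3COO)2, 1 mM MnCl2, 0,1% BSA, 0,01% Brij 35, 5 mM DTT. Full-length cmyc-p53 (Sf21-expressed) and ATP then added, 30-35 min at 22° C. EDTA stop; p53 S15 phosphorylation read by TR-FRET antibodies.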

PI3K (p120γ) (human) = PI3K (p120γ) (human) (Homo sapiens (Human), UniProt P48736); test: PI3K (p120γ) (human), non-radioactive assay (HTRF); format: biochemical; conditions: read-out: IC50 (PI3Kgamma)
How it was run: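 Enzyme was run with 10 μM phosphatidylinositol 4,5-bisphosphate, starting the reaction with MgATP at an unspecified level, for 30 min at room temperature. The stop used EDTA plus biotinylated PIP3, and detection used Eu-anti-GST, GST-GRP1 PH domain and streptavidin-APC. Signal was taken as HTRF = 10000×(Em665nm/Em620nm).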

PI3K p110α/p85α (human) = PI3K p110α/p85α (human) (Homo sapiens (Human), UniProt P42336); test: PI3K p110α/p85α (human), non-radioactive assay (HTRF); format: biochemical; conditions: read-out: IC50 (PI3Kalpha)
[2] = test system: phosphorylation of CHK2 (phospho-Thr68) in HCT116 cells; test: Cellular pCHK2 assay: bleomycin-induced phosphorylation of CHK2 (phospho-Thr68), immunofluorescence high-content analysis; format: cell-based, human; conditions: Homo sapiens, HCT-116, 4 h, read-out: IC50 (pCHK2)
How it was run: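 HCT116 cells in DMEM with 10% FCS, incubated overnight at 37° C, then given compounds (1 nM to 30 μM, 0.5% DMSO) together with 10 μM bleomycin. Phospho-Thr68 CHK2 immunostained and imaged by high-content imager; nuclei with pCHK2 above background counted, cell count from propidium iodide DNA stain.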

PI3K p110β/p85α (human) = PI3K p110β/p85α (human) (Homo sapiens (Human), UniProt P42338); test: PI3K p110β/p85α (human), non-radioactive assay (HTRF); format: biochemical; conditions: read-out: IC50 (PI3Kbeta)
How it was run: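 Human p110β/p85α incubated with 10 μM phosphatidylinositol 4,5-bisphosphate and MgATP for 30 min at room temperature, stopped with EDTA plus biotinylated PIP3. HTRF detection used a Eu-anti-GST antibody, GST-GRP1 PH domain and streptavidin-APC, with signal taken as 10000×(Em665nm/Em620nm).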

Sequence of PI3K p110α/p85α (human) (P42336 whole entry): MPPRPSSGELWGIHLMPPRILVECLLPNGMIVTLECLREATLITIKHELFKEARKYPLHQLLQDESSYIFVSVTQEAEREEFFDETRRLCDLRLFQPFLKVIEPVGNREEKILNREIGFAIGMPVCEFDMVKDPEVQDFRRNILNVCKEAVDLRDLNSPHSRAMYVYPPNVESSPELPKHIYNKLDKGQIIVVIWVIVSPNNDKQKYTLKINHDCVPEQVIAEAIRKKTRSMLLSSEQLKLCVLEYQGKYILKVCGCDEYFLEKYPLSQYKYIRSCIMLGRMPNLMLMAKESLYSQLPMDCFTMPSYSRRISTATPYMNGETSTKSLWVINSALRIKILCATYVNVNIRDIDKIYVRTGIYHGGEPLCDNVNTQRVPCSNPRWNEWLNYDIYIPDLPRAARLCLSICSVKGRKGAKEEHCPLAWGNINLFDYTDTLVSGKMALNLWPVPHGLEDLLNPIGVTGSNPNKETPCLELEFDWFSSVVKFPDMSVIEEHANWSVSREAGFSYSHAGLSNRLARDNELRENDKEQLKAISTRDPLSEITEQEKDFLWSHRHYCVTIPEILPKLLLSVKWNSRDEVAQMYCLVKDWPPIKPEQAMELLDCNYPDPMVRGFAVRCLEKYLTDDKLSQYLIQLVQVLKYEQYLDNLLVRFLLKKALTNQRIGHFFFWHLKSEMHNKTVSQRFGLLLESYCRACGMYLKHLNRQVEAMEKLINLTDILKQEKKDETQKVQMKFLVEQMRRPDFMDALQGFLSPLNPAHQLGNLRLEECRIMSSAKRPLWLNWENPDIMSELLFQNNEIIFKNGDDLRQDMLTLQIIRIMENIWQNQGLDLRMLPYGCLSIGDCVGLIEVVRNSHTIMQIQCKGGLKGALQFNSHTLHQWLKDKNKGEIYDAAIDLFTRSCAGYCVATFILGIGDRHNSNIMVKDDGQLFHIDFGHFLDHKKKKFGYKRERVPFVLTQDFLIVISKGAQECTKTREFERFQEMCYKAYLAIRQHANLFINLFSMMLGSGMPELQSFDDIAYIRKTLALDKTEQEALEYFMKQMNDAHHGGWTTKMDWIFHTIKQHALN
Sequence of PI3K p110α/p85α (human) (P27986 whole entry partner): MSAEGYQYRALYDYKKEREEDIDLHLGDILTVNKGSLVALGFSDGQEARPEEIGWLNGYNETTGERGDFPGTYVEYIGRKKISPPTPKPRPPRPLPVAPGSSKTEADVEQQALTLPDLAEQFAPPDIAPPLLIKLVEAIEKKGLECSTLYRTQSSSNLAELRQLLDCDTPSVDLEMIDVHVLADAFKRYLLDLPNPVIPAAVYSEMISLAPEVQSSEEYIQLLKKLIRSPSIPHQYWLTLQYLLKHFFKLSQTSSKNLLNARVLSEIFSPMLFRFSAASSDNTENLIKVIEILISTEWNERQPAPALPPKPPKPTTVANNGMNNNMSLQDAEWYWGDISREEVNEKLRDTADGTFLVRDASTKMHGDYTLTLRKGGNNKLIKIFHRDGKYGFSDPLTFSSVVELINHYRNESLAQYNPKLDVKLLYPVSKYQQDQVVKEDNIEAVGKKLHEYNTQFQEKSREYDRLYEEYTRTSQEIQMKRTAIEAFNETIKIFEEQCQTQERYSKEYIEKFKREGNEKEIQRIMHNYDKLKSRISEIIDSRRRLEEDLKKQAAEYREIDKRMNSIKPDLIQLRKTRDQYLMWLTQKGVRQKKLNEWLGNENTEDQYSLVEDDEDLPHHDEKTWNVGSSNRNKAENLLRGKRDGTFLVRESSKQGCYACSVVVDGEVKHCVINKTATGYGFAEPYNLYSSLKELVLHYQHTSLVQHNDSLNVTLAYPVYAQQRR
Sequence of purified human recombinant ATM (ataxia telangiectasia mutated), full length (Q13315 whole entry, change not shown): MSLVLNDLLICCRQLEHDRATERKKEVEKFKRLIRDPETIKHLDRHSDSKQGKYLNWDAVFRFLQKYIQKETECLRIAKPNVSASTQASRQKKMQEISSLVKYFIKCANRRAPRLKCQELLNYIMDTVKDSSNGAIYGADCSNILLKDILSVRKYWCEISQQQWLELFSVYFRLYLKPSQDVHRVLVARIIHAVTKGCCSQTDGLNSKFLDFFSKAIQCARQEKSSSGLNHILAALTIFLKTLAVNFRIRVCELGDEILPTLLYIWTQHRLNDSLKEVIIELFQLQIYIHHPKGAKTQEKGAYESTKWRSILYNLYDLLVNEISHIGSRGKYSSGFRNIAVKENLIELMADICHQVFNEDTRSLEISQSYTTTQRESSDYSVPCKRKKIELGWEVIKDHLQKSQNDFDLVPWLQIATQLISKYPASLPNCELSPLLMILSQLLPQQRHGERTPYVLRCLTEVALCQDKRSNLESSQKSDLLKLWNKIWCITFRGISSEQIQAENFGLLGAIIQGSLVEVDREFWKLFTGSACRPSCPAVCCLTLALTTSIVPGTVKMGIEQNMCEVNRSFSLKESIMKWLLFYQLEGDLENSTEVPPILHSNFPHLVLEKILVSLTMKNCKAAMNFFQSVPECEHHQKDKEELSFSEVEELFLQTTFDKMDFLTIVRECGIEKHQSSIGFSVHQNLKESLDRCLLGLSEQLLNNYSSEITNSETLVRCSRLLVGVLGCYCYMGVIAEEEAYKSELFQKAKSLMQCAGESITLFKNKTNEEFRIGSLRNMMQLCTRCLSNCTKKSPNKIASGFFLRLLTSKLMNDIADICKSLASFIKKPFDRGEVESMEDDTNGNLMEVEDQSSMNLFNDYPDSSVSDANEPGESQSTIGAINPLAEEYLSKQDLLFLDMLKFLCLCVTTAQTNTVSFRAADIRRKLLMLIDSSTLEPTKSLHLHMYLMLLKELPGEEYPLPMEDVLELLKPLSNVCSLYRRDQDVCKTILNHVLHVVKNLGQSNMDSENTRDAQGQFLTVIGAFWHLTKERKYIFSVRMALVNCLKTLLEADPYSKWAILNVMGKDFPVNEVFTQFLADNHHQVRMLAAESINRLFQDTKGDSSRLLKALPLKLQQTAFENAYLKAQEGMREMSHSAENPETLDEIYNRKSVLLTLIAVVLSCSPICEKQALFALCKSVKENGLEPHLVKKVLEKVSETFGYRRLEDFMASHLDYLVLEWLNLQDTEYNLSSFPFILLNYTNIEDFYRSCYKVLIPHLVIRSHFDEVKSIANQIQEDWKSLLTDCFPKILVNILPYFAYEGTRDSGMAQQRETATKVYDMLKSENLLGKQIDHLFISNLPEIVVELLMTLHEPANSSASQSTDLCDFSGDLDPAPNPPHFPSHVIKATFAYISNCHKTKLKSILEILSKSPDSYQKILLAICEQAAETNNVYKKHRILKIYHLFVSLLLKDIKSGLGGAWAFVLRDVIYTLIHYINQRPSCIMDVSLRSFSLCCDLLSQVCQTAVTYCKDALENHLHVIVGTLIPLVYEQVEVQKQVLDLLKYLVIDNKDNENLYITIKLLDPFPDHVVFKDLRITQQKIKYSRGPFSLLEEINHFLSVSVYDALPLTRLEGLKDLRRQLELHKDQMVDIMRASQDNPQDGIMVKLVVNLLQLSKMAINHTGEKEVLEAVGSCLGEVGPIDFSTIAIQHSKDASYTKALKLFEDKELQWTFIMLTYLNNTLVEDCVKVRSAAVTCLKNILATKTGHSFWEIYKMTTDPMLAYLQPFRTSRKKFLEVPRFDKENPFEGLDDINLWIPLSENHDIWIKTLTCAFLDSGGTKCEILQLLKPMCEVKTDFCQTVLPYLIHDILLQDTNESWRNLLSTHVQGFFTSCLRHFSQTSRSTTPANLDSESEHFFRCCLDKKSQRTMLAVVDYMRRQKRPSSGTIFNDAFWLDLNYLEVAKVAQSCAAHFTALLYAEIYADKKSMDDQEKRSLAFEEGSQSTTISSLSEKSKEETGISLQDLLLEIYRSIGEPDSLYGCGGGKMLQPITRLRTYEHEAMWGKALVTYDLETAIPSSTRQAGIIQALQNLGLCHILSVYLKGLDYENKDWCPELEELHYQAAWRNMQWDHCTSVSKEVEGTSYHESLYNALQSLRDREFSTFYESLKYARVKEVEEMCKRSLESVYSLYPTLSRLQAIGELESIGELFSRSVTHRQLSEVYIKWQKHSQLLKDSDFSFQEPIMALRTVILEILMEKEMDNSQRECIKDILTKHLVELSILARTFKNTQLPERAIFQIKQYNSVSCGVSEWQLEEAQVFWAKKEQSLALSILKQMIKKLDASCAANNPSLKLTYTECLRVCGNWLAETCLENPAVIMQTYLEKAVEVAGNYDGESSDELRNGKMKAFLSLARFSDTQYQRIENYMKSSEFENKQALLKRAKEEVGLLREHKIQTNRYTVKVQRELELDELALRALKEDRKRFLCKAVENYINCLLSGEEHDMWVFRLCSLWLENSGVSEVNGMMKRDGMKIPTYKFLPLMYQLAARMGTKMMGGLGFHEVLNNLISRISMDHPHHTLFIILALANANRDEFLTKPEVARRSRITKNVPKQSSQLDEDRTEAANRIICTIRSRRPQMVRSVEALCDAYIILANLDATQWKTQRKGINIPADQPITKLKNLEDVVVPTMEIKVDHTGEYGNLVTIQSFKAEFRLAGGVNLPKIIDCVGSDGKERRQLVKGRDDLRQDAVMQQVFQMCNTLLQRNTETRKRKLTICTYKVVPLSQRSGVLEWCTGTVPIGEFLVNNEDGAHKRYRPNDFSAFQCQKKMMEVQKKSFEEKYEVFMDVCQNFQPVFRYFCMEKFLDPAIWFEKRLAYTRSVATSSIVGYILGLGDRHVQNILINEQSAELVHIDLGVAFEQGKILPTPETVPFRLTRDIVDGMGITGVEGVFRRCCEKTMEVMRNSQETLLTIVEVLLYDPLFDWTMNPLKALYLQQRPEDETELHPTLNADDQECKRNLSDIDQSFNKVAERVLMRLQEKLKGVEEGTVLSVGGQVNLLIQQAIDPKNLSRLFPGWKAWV

Q: What does the source list for `CCn1cc(-c2cc3c(cc2OC)ncc2c3n(-c3ccncc3C)c(=O)n2C)cn1` [Compound Example 34, 8-(1-Ethyl-1H-pyrazol-4-yl)-7-methoxy-3-methyl-1-(3-methylpyridin-4-yl)-1,3-dihydroimidazo[4,5-c] quinolin-2-one]?
A: IC50 (mTOR (human)): > 30 µM; IC50 (PI3K p110δ/p85α (human)): > 30 µM; IC50 [1]: < 0.01 µM; IC50 ([1]; 10 μM ATP, substrate p53): < 0.01 µM; IC50 (PI3K (p120γ) (human)): > 30 µM; IC50 (PI3K p110α/p85α (human)): > 30 µM; IC50 [2]: < 0.2 µM; IC50 (PI3K p110β/p85α (human)): > 30 µM

Q: Which IC50 (mTOR (human)) does the source give for `COc1cc2ncc3c(c2cc1-c1cnn(C)c1)n(-c1cnn(C2CCOCC2)c1)c(=O)n3C` [Compound Example 55, 7-Methoxy-3-methyl-8-(1-methyl-1H-pyrazol-4-yl)-1-[1-(tetrahydropyran-4-yl)-1H-pyrazol-4-yl]-1,3-dihydroimidazo[4,5-c]-quinolin-2-one] here?
A: > 30 µM

Q: And the IC50 (PI3K p110δ/p85α (human))?
A: > 30 µM

Q: What about the IC50 [1] of the same compound?
A: < 0.01 µM

Q: What about the IC50 ([1]; 10 μM ATP, substrate p53) of the same compound?
A: < 0.01 µM

Q: And the IC50 (PI3K (p120γ) (human))?
A: > 30 µM

Q: And the IC50 (PI3K p110α/p85α (human))?
A: > 30 µM

Q: And the IC50 [2]?
A: 0.2 to 1 µM

Q: What about the IC50 (PI3K p110β/p85α (human)) of the same compound?
A: > 30 µM

Q: With `COc1cc2ncc3c(c2cc1-c1cnn(C)c1)n(-c1c(F)cncc1OC)c(=O)n3C` [Compound Example 15, 1-(3-Fluoro-5-methoxypyridin-4-yl)-7-methoxy-3-methyl-8-(1-methyl-1H-pyrazol-4-yl)-1,3-dihydroimidazo[4,5-c]-quinolin-2-one] as the compound, how does the IC50 (mTOR (human)) read?
A: > 30 µM

Q: And the IC50 (PI3K p110δ/p85α (human))?
A: > 30 µM

Q: And the IC50 [1]?
A: < 0.001 µM

Q: And the IC50 ([1]; 10 μM ATP, substrate p53)?
A: < 0.001 µM

Q: And the IC50 (PI3K (p120γ) (human))?
A: > 30 µM

Q: And the IC50 (PI3K p110α/p85α (human))?
A: > 30 µM

Q: And the IC50 [2]?
A: < 0.2 µM

Q: What about the IC50 (PI3K p110β/p85α (human)) of the same compound?
A: > 30 µM

Q: With `COc1cc2ncc3c(c2cc1-c1cnn(C)c1)n(-c1ccnc(C#N)c1)c(=O)n3C` [Compound Example 45, 4-[7-Methoxy-3-methyl-8-(1-methyl-1H-pyrazol-4-yl)-2-oxo-2,3-dihydroimidazo-[4,5-c]quinolin-1-yl]pyridine-2-carbonitrile] as the compound, how does the IC50 (mTOR (human)) read?
A: > 30 µM

Q: What about the IC50 (PI3K p110δ/p85α (human)) of the same compound?
A: > 30 µM

Q: What about the IC50 [1] of the same compound?
A: < 0.05 µM

Q: What about the IC50 ([1]; 10 μM ATP, substrate p53) of the same compound?
A: < 0.05 µM

Q: And the IC50 (PI3K (p120γ) (human))?
A: > 30 µM

Q: And the IC50 (PI3K p110α/p85α (human))?
A: > 30 µM

Q: And the IC50 [2]?
A: 0.2 to 1 µM

Q: And the IC50 (PI3K p110β/p85α (human))?
A: > 30 µM

Q: For `COc1cc2ncc3c(c2cc1-c1cn[nH]c1)n(-c1cnn(C2CCOCC2)c1)c(=O)n3C` [Compound Example 37, 7-Methoxy-3-methyl-8-(1H-pyrazol-4-yl)-1-[1-(tetrahydropyran-4-yl)-1H-pyrazol-4-yl]-1,3-dihydro-imidazo[4,5-c] quinolin-2-one], which IC50 (mTOR (human)) is on record?
A: > 10 µM

Q: What about the IC50 (PI3K p110δ/p85α (human)) of the same compound?
A: > 30 µM

Q: And the IC50 [1]?
A: < 0.01 µM

Q: What about the IC50 ([1]; 10 μM ATP, substrate p53) of the same compound?
A: < 0.01 µM

Q: And the IC50 (PI3K (p120γ) (human))?
A: > 30 µM

Q: What about the IC50 (PI3K p110α/p85α (human)) of the same compound?
A: > 30 µM

Q: And the IC50 [2]?
A: < 0.2 µM

Q: And the IC50 (PI3K p110β/p85α (human))?
A: > 30 µM

Reference: patent US10457677B2 (priority 2015, dated 2019)
